Data reported in patent US4918056A, “2-substituted arabinopyranosyl nucleosides and nucleotides” (priority 1986, dated 1990).

Columns and labels:
L1210/ara-C leukemia = assay: Therapeutic activity in DBA/2N mice with ara-C resistant L1210 leukemia; conditions: for Median survival: control 7; for Mean ± SD survival: control 7.1 + 0.1
Method: (§1) In conducting the evaluations, the activity was tested against intraperitoneal (i.p.) implanted leukemia in mice.
(§2) DBA/2N female mice (20 g) were implanted i.p. with 1×10^6 L1210 leukemia cells on day 0. Mice were weighed and inspected for tumor growth and survival daily. […] Dosages varied from 1 to 800 mg/kg/day (mkd).
(§3) Survival time was measured in days after tumor implantation. % ILS (increase in life span) was based on mean survival.
(§4) Testing was followed as described in the NCI protocol and evaluation by comparison of median survival time (ST) of the treated animals to that of the control animals by the percentage increase in % ILS.
(§5) Drug resistant L1210 leukemia cell sublines were obtained from the National Cancer Institute. […] Eight mice were used as controls and five mice for each drug dosage group. Drugs were administered i.p. once per day on days 1, 2, 3, 4 and 5.

L1210/5-FU leukemia = assay: Therapeutic activity in DBA/2N mice with 5-FU resistant L1210 leukemia; assay type: in vivo, mouse (DBA/2N female); conditions: for Median survival: control 9; for Mean ± SD survival: control 9.25 ± 0.2
Method: as §1, §2, §3, §4, §5

L1210 leukemia cells = assay: Reversal of L1210 growth inhibition by salvageable nucleosides; assay type: cell-based, mouse
Method: Reversal studies were conducted as follows: […], 85027 or 5-FdUr were added at various concentrations near their IC50 to cultures of L1210 leukemia cells, maintained in PRMI 1640 medium supplemented with 10% fetal calf serum and 16mM HEPES, pH 7.2 as described in Example 9. Nucleosides including thymidine (1×10^-5 M), uridine (1×10^-4 M), deoxyuridine ([…]), adenosine (1×10^-4 M), or guanosine (1×10^-5 M) were also added to identical drug (85024, 85027 or 5-FdUr) containing L1210 leukemia cultures. Cellular growth inhibition or its prevention by the addition of salvageable nucleosides was determined 48 hours later by counting cells using an electronic Coulter Counter.

Lewis lung carcinoma = assay: Therapeutic activity in C57/B16 mice with s.c. Lewis lung carcinoma; assay type: in vivo, mouse (C57/B16 female); conditions: for % ILS (increase in life span): based on median survival; for Median survival: control 22
Method: (§6) The therapeutic activity of 85024 was evaluated in C57/B16 female mice implanted s.c. with either Lewis lung carcinoma or M5076 sarcoma (Table 5).
(§7) C57/B16 female mice were implanted s.c. using a trochar on day 0 with a 50 mg piece of either Lewis lung carcinoma of M5076 sarcoma. Drugs were administered i.p. once daily on days 3, 4, 5, 6 and 7. Tumor size (two perpendicular diameters) was measured with calipers and volume was estimated algebraically. Survival was monitored daily for 60 days. % ILS (increase in life span) is based on median survival.

M5076 sarcoma = assay: Therapeutic activity in C57/B16 mice with s.c. M5076 sarcoma; assay type: in vivo, mouse (C57/B16 female); conditions: days 3-7; for % ILS (increase in life span): based on median survival; for Half Maximal Tumor Volume: control 32; for Median survival: control 37
Method: as §6, §7

L1210/0 leukemia = assay: Therapeutic activity against i.p. inoculated L1210/0 leukemic mice; assay type: in vivo, mouse (DBA/2N female); conditions: for Mean ± SD survival: control 6.7 ± 0.1; for Median survival: control 7
Method: The control group consisted of 20 mice injected with a 0.2 ml suspension of 0.5% Tween 80 in saline.

COC1OC[C@@H](OC(C)=O)[C@@H](OC(C)=O)[C@]1(F)n1ccc(=O)[nH]c1=O (stereo partly drawn) [compound 85024, Methyl 3,4-di-0-acetyl-2-deoxy-2(R)-[1H,3H-2,4-dioxo-1-pyrimidinyl]-2-fluoro-α-D-arabinopyranoside [5a] and methyl 3,4-di-0-acetyl-2-deoxy-2(R)-[1H,3H-2,4-dioxo-1-pyrimidinyl]-2-fluoro-β-D-arabinopyranoside [6a]]
Mean Animal Weight (L1210/ara-C leukemia; 100 mkd × 5 i.p.): 20.7 g | Survival Range (L1210/ara-C leukemia; 100 mkd × 5 i.p.): 8 to 9 days | % ILS (increase in life span) (L1210/ara-C leukemia; 100 mkd × 5 i.p., NS): 28% | Median survival (L1210/ara-C leukemia; 100 mkd × 5 i.p.): 9 days | Mean ± SD survival (L1210/ara-C leukemia; 100 mkd × 5 i.p.): 8.6 ± 0.2 days | Mean Animal Weight (L1210/ara-C leukemia; 200 mkd × 5 i.p.): 21.0 g | Survival Range (L1210/ara-C leukemia; 200 mkd × 5 i.p.): 8 to 9 days | % ILS (increase in life span) (L1210/ara-C leukemia; 200 mkd × 5 i.p., P <.01): 28% | Median survival (L1210/ara-C leukemia; 200 mkd × 5 i.p.): 9 days | Mean ± SD survival (L1210/ara-C leukemia; 200 mkd × 5 i.p.): 8.8 ± 0.2 days | Mean Animal Weight (L1210/ara-C leukemia; 500 mkd × 5 i.p.): 18.6 g | Survival Range (L1210/ara-C leukemia; 500 mkd × 5 i.p.): 10 to 11 days | % ILS (increase in life span) (L1210/ara-C leukemia; 500 mkd × 5 i.p., P <.01): 57% | Median survival (L1210/ara-C leukemia; 500 mkd × 5 i.p.): 11 days | Mean ± SD survival (L1210/ara-C leukemia; 500 mkd × 5 i.p.): 10.8 ± 0.2 days | cross resistance to ara-C and 5-FU (L1210/ara-C leukemia; summary of L1210/ara-C and L1210/5-FU tests): not cross resistant | Mean Animal Weight (L1210/5-FU leukemia; 100 mkd × 5 i.p.): 20.6 g | Survival Range (L1210/5-FU leukemia; 100 mkd × 5 i.p.): 9 to 12 days | % ILS (increase in life span) (L1210/5-FU leukemia; 100 mkd × 5 i.p., P <.05): 22% | Median survival (L1210/5-FU leukemia; 100 mkd × 5 i.p.): 11 days | Mean ± SD survival (L1210/5-FU leukemia; 100 mkd × 5 i.p.): 10.6 ± .5 days | Mean Animal Weight (L1210/5-FU leukemia; 200 mkd × 5 i.p.): 20.2 g | Survival Range (L1210/5-FU leukemia; 200 mkd × 5 i.p.): 9 to 11 days | % ILS (increase in life span) (L1210/5-FU leukemia; 200 mkd × 5 i.p., P 0.1): 11% | Median survival (L1210/5-FU leukemia; 200 mkd × 5 i.p.): 10 days | Mean ± SD survival (L1210/5-FU leukemia; 200 mkd × 5 i.p.): 10 ± 0.4 days | % ILS (increase in life span) (L1210/5-FU leukemia; 500 mkd × 5 i.p.): -34% | Mean Animal Weight (L1210/5-FU leukemia; 500 mkd × 5 i.p.): 15.9 g | Survival Range (L1210/5-FU leukemia; 500 mkd × 5 i.p.): 6 to 7 days | Median survival (L1210/5-FU leukemia; 500 mkd × 5 i.p.): 6 days | Mean ± SD survival (L1210/5-FU leukemia; 500 mkd × 5 i.p.): 6.4 ± 0.2 days | reversal of cellular cytotoxicity by exogenous nucleosides (L1210 leukemia cells; exogenous thymidine, uridine or deoxyuridine, tissue culture): not reversed by exogenous thymidine, uridine or deoxyuridine | effect of added nucleoside on the IC50 (L1210 leukemia cells; thymidine (1×10^-5 M), uridine (1×10^-4 M) or deoxyuridine (1×10^-5 M)): < 10% | effect on tumor size (Lewis lung carcinoma; 400 mg/kg/day i.p., days 3-7): statistically significant decrease in tumor size | increase of median day to reach half maximal tumor size (Lewis lung carcinoma; 400 mg/kg/day i.p., days 3-7, normalized for animal weight, from day 19 to 23): 4 days | Survival Range (Lewis lung carcinoma; 50 mkd × 5 i.p., days 3-7): 24 to 31 days | % ILS (increase in life span) (Lewis lung carcinoma; 50 mkd × 5 i.p., days 3-7): 22% | Half Maximal Tumor Volume (Lewis lung carcinoma; 50 mkd × 5 i.p., days 3-7, control 19, p < 0.05): 20.5 days | Median survival (Lewis lung carcinoma; 50 mkd × 5 i.p., days 3-7): 27 days | Survival Range (Lewis lung carcinoma; 200 mkd × 5 i.p., days 3-7): 17 to 32 days | % ILS (increase in life span) (Lewis lung carcinoma; 200 mkd × 5 i.p., days 3-7): 40% | Half Maximal Tumor Volume (Lewis lung carcinoma; 200 mkd × 5 i.p., days 3-7, control 19): 21 days | Median survival (Lewis lung carcinoma; 200 mkd × 5 i.p., days 3-7): 31 days | Survival Range (Lewis lung carcinoma; 400 mkd × 5 i.p., days 3-7): 21 to 31 days | % ILS (increase in life span) (Lewis lung carcinoma; 400 mkd × 5 i.p., days 3-7, p < 0.05): 40% | Half Maximal Tumor Volume (median day to reach half maximal tumor size) (Lewis lung carcinoma; 400 mkd × 5 i.p., days 3-7, control 19, p < 0.05): 23 days | Median survival (Lewis lung carcinoma; 400 mkd × 5 i.p., days 3-7): 31 days | effect on lifespan and tumor size (Lewis lung carcinoma; s.c. solid tumors (Lewis lung carcinoma or M5076 sarcoma)): increased their lifespan and significantly decreased tumor size | effect on tumor size (M5076 sarcoma; 400 mg/kg/day i.p.): statistically significant decrease in tumor size | % ILS (increase in life span) (M5076 sarcoma; 50 mkd × 5 i.p.): 0% | Half Maximal Tumor Volume (M5076 sarcoma; 50 mkd × 5 i.p., p < 0.05): 35 days | Median survival (M5076 sarcoma; 50 mkd × 5 i.p.): 36 days | Survival Range (M5076 sarcoma; 50 mkd × 5 i.p., one animal survived for 60 days but bore a large, frank tumor): 34 to 60 days | Survival Range (M5076 sarcoma; 200 mkd × 5 i.p.): 36 to 42 days | % ILS (increase in life span) (M5076 sarcoma; 200 mkd × 5 i.p.): 0% | Half Maximal Tumor Volume (M5076 sarcoma; 200 mkd × 5 i.p.): 35 days | Median survival (M5076 sarcoma; 200 mkd × 5 i.p.): 37 days | Survival Range (M5076 sarcoma; 400 mkd × 5 i.p.): 33 to 47 days | % ILS (increase in life span) (M5076 sarcoma; 400 mkd × 5 i.p.): 14% | Half Maximal Tumor Volume (M5076 sarcoma; 400 mkd × 5 i.p., p < 0.05): 38 days | Median survival (M5076 sarcoma; 400 mkd × 5 i.p.): 42 days | Mean Animal Weight (on the day of death) (L1210/0 leukemia; 50 mkd × 5 i.p.): 23.4 g | Survival Range (L1210/0 leukemia; 50 mkd × 5 i.p.): 7 to 8 days | % ILS (increase in life span) (L1210/0 leukemia; 50 mkd × 5 i.p., N.S.): 7% | Mean ± SD survival (L1210/0 leukemia; 50 mkd × 5 i.p.): 7.2 ± 0.2 days | Median survival (L1210/0 leukemia; 50 mkd × 5 i.p.): 7 days | Mean Animal Weight (on the day of death) (L1210/0 leukemia; 100 mkd × 5 i.p.): 24.0 g | Survival Range (L1210/0 leukemia; 100 mkd × 5 i.p.): 8-8 days | % ILS (increase in life span) (L1210/0 leukemia; 100 mkd × 5 i.p., N.S.): 19% | Mean ± SD survival (L1210/0 leukemia; 100 mkd × 5 i.p.): 8.0 ± 0 days | Median survival (L1210/0 leukemia; 100 mkd × 5 i.p.): 8 days | Mean Animal Weight (on the day of death) (L1210/0 leukemia; 200 mkd × 5 i.p.): 22.0 g | Survival Range (L1210/0 leukemia; 200 mkd × 5 i.p.): 8 to 10 days | Mean ± SD survival (L1210/0 leukemia; 200 mkd × 5 i.p.): 8.8 ± 0.2 days | Median survival (L1210/0 leukemia; 200 mkd × 5 i.p.): 9 days | % ILS (increase in life span) (L1210/0 leukemia; 200 mkd × 5 i.p., p < 0.01): 31% | Mean Animal Weight (on the day of death) (L1210/0 leukemia; 400 mkd × 5 i.p.): 18.8 g | Survival Range (L1210/0 leukemia; 400 mkd × 5 i.p.): 9 to 11 days | Mean ± SD survival (L1210/0 leukemia; 400 mkd × 5 i.p.): 9.9 ± 0.2 days | Median survival (L1210/0 leukemia; 400 mkd × 5 i.p.): 10 days | % ILS (increase in life span) (L1210/0 leukemia; 400 mkd × 5 i.p., p < 0.01): 48% | Mean Animal Weight (on the day of death) (L1210/0 leukemia; 500 mkd × 5 i.p.): 17.3 g | Survival Range (L1210/0 leukemia; 500 mkd × 5 i.p.): 10 to 11 days | Mean ± SD survival (L1210/0 leukemia; 500 mkd × 5 i.p.): 10.4 ± 0.2 days | Median survival (L1210/0 leukemia; 500 mkd × 5 i.p.): 10 days | % ILS (increase in life span) (L1210/0 leukemia; 500 mkd × 5 i.p., p < 0.01): 55% | Mean Animal Weight (on the day of death) (L1210/0 leukemia; 600 mkd × 5 i.p.): 16.8 g | Survival Range (L1210/0 leukemia; 600 mkd × 5 i.p.): 7 to 11 days | Mean ± SD survival (L1210/0 leukemia; 600 mkd × 5 i.p.): 9.4 ± 0.8 days | Median survival (L1210/0 leukemia; 600 mkd × 5 i.p.): 10 days | % ILS (increase in life span) (L1210/0 leukemia; 600 mkd × 5 i.p., p < 0.5): 40% | Mean Animal Weight (on the day of death) (L1210/0 leukemia; 700 mkd × 5 i.p.): 16.6 g | Survival Range (L1210/0 leukemia; 700 mkd × 5 i.p.): 4 to 7 days | % ILS (increase in life span) (L1210/0 leukemia; 700 mkd × 5 i.p., N.S.): -10% | Mean ± SD survival (L1210/0 leukemia; 700 mkd × 5 i.p.): 6.0 ± 0.6 days | Median survival (L1210/0 leukemia; 700 mkd × 5 i.p.): 7 days | % ILS (increase in life span) (L1210/0 leukemia; 800 mkd × 5 i.p.): -70% | Mean Animal Weight (on the day of death) (L1210/0 leukemia; 800 mkd × 5 i.p.): 19.5 g | Survival Range (L1210/0 leukemia; 800 mkd × 5 i.p.): 2-2 days | Mean ± SD survival (L1210/0 leukemia; 800 mkd × 5 i.p.): 2.0 ± 0 days | Median survival (L1210/0 leukemia; 800 mkd × 5 i.p.): 2 days | dose of maximal therapeutic efficacy (L1210/0 leukemia; 5 day i.p. schedule, 1 dose per day days 1-5): 500 mg/kg/day | mortality due to drug toxicity (L1210/0 leukemia; i.p. days 1-5, 800 mkd): eventual mortality due to drug toxicity | host toxicity (L1210/0 leukemia; i.p. days 1-5, above 500 mkd, evidenced by increased weight loss): increased host toxicity
